The target of assay [1] is T1, CDK4 (Homo sapiens, UniProt P11802). Nature of the assay: CDK4 inhibition by Caliper assay. Type of assay: biochemical. As to conditions: compound 100 nM. The method, then: (§1) The experimental steps were as follows:
(§2) Preparation of 1×kinase reaction buffer (50 mM HEPES, PH 7.5; 0.0015% Brij-35) and kinase reaction termination solution (100 mM HEPES, PH 7.5; 0.0015% Brij-35; 0.2% Coating Reagent; 50 mM EDTA) preparation of experimental samples: 100 μL of 5 μM sample solution (dissolved in 100% DMSO) was added to a 96-well plate to obtain a 50×sample solution. As controls, two wells containing only 100 μL of 100% DMSO were set on the same plate. One was served as a control without samples and the other was served as a control without enzymes. 10 μL of sample and 90 μL of 1×kinase reaction buffer were added to a 96-well plate as a transfer plate. The transfer plate was shaken for 10 minutes.
(§3) Preparation of the test plate: taking 5 μL of each of the prepared samples in the 96-well transfer plate into a 384-well plate. Kinase reaction: to 5 μL of 5×compound solution (dissolved in DMSO, diluted 10 times with water) was added 10 μL of 2.5×CDK4/6 kinase solution (kinase was diluted with 1×kinase reaction buffer), which was incubated at room temperature for 10 min, and then 10 μL of 2.5×substrate peptide solution (FAM-labeled peptide and ATP were diluted with 1×kinase reaction buffer) was added. Termination of the kinase reaction: 25 μL of kinase reaction termination solution was added after being reacted at 28° C. for a period of time. The fluorescence (F) was tested on a Caliper and data was collected. The inhibition rate of kinase activity was calculated: the percent inhibition rate of kinase activity=(FDMSO control−Fsample)/(FDMSO control−Fnegative control)×100%, with DMSO as the solution control, and no kinase as the negative control.
Target sequence in this assay (P11802 whole entry, species assumed): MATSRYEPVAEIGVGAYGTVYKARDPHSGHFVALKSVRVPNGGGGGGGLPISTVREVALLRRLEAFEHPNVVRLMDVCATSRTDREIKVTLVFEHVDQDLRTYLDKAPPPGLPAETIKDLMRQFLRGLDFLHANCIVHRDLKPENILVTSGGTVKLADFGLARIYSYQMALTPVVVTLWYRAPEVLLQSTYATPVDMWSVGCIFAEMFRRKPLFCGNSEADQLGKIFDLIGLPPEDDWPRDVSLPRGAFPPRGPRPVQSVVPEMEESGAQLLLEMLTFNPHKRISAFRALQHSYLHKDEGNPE
Target sequence in this assay (P30281 whole entry partner, species assumed): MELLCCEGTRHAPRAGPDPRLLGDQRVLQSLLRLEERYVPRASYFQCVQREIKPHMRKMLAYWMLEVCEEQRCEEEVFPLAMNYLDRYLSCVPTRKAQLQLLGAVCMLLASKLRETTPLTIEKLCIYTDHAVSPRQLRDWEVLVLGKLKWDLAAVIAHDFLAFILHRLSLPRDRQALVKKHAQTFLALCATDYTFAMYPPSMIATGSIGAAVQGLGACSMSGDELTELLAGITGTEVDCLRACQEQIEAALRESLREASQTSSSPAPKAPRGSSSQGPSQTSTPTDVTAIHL

For assay [2], the target named is T2, CDK6 (Homo sapiens, UniProt Q00534). Nature of the assay: CDK6 inhibition by Caliper assay. It counts as biochemical. The following applies: compound 100 nM. The protocol:
as §1, §2, §3
Target sequence in this assay (Q00534 whole entry, species assumed): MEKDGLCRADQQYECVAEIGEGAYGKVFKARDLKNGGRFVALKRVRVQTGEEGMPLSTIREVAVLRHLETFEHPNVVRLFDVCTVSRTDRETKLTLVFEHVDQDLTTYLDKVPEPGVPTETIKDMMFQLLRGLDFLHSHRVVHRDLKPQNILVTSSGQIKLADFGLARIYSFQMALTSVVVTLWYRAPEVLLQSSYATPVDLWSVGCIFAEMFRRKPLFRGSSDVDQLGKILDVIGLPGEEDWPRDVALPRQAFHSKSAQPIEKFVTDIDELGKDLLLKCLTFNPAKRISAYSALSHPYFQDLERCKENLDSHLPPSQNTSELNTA
Target sequence in this assay (P30281 whole entry partner, species assumed): as the sequence (P30281 whole entry partner, species assumed) above

The test system of assay [3] is MCF-7 cells. The assay can be described thus: Inhibition of proliferation of MCF-7 cells by MTT assay. The following applies: Homo sapiens, MCF7, 48 hours. Type of assay: cell-based. The protocol:
The inhibitory effect of the compound on the proliferation of MCF-7 cells (commercially available from ATCC) was determined by the MTT method in vitro. […] Each compound was dissolved in dimethyl sulfoxide (DMSO) to obtain a solution with a concentration of 10 mM, and then diluted to the desired concentration with a phosphate buffer solution. The solution was added to the above 96-well plate. Each concentration has 2 wells with 10 μl per well. Each concentration was tested in duplicate. As a control, DMSO was diluted in the corresponding gradient and then added to the plate. After the 96-well plate was cultured in a 37° C., 5% CO2 cell incubator for 48 hours, 20 μl of MTT solution in 5 mg/ml was added to each well, and it was cultured in the incubator for another 3 to 4 hours. 100 μl of lysate was added to each well and the cells were further incubated overnight in the incubator to fully dissolve the formazan crystals generated. The light absorption value at 492 nm was measured. The relative survival rate of the cells after the compound treatment was calculated based on the light absorption value. The IC50 of the compound against MCF-7 cells was calculated by software.

The subject of assay [4] is T47D cells. Nature of the assay: Inhibition of proliferation of T47D cells by CCK8 assay. The following applies: Homo sapiens, CCK8, 72 hours. Type of assay: cell-based. The protocol: The inhibitory effect of the compound on the proliferation of T47D cells (commercially available from ATCC) was determined by the CCK8 method in vitro. The experimental steps were as follows: T47D cells were cultured in 1640 medium of 10% calf serum, seeded in a 96-well plate with 1.5×10^5/ml, and placed in a 37° C., 5% CO2 incubator. Each compound or the positive drug (Ribociclib) was dissolved in dimethyl sulfoxide (DMSO) to obtain a solution with a concentration of 100 mM, and then diluted to the desired concentration with the culture medium. The solutions were then added to the above 96-well plates. Each concentration has 3 wells with 50 μl per well. As a control, DMSO was diluted in the corresponding gradient and then added to the plate. After the 96-well plate was cultured in a 37° C., 5% CO2 cell incubator for 72 hours, 110 μl of CCK8 solution in 9% was added to each well, and it was cultured in the incubator for another 4 hours. The light absorption value at 450 nm was measured. The relative survival rate of the cells after the compound treatment was calculated based on the light absorption value. The IC50 of the compound against T47D cells was calculated by software.

In assay [5] the target is T1, CDK4. The assay can be described thus: CDK4 protein degradation activity by Western blot in MCF-7 cells. It counts as cell-based. Further details: host or cells: MCF-7. The following applies: MCF7, compound 1 μM, 24 hours. The method, then: (§4) Cell lines: MCF-7 cell lines (human breast cancer cells, available from ATCC) were cultured in MEM medium containing 10% calf serum in a 37° C., 5% CO2, and saturated humidity incubator. DMSO control group and compound intervention group (1 μM) were set. Cells were collected after the treatment for 24 hours, then 100 μL of pre-chilled cell lysate was added and cells were lysed on ice for 30 minutes, total cell protein was extracted, and protein concentration was determined and quantified by bicinchoninic acid method. After routine gelatinization, loading, electrophoresis, then transferring to membrane and blocking, rabbit anti-human CDK4 (1:450) and rabbit anti-human CDK6 (1:150) were added and incubated at 4° C. overnight. The mixture was rinsed and then secondary antibody IgG (1:5000) was added. After the rinsing it was developed by the ECL developing solution, the Bio-Rad gel imaging system was used for scanning and imaging, and the computer software was used for analysis. […] (GAPDH) was used as an internal control. Image J software was used to analyze the gray scale of each band to calculate the degradation rate of the compound to degrade CDK4/6 protein.
Target sequence in this assay (P11802 whole entry): as the sequence (P11802 whole entry, species assumed) above

The target of assay [6] is T2, CDK6. Nature of the assay: CDK6 protein degradation activity by Western blot in MCF-7 cells. Type of assay: cell-based. Further details: host or cells: MCF-7. The following applies: MCF7, compound 1 μM, 24 hours. The protocol: as §4
Target sequence in this assay (Q00534 whole entry): as the sequence (Q00534 whole entry, species assumed) above

Structures are written as SMILES.

For the compound `CN(C)C(=O)c1cc2cnc(Nc3ccc(N4CCN(CCCCCC(=O)Nc5cccc6c5C(=O)N(C5CCC(=O)NC5=O)C6=O)CC4)cn3)nc2n1C1CCCC1` (stereo not drawn) [Compound 3], the results for the inhibition at 0.1 µM in assay [1] and in assay [2] were 97% and 86%, respectively. For the same compound, the IC50 was determined as 0.08 µM in assay [3] and 13.7 µM in assay [4]. For the same compound, the Dmax at 1 µM in assay [5] is more than 90%; in assay [6], 50 to 90%.
